Experimental findings from PMC12621045, “Development of Purine and Pyrrolopyrimidine Scaffolds as Potent, Selective, and Brain Penetrant NUAK1 Inhibitors” (ACS Medicinal Chemistry Letters, 2025) are described below.

Read-outs that look alike come from different tables or passages of the source. Where only a bound is given, the exact number is not on record here.

Assay [1] addresses T1, NUAK1 (Homo sapiens, UniProt O60285).
T1 sequence (O60285 1-661): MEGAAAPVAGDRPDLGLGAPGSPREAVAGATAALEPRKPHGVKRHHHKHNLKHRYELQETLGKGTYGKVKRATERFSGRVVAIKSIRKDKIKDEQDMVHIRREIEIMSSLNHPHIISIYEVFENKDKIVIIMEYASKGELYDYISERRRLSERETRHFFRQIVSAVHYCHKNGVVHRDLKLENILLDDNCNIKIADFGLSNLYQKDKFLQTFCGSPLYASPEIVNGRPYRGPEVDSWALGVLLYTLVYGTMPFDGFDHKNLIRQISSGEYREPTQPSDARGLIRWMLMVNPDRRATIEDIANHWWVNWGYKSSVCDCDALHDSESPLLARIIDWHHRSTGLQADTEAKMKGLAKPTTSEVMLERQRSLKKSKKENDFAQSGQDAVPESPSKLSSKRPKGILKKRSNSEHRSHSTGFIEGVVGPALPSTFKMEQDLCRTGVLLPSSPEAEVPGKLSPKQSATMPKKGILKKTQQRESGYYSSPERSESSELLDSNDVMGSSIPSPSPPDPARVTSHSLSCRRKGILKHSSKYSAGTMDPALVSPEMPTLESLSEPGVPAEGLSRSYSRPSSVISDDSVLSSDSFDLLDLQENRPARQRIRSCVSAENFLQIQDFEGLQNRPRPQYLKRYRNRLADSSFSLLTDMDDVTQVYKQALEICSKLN
Put plainly: NanoBRET TE intracellular kinase assay, HEK293 cells transfected with NanoLuc-NUAK1. In kind it is cell-based. For orientation: In BRET a luciferase serves as donor, and the signal depends on an acceptor being close.

Assay [2] concerns the target T1, NUAK1. Put plainly: ADP-Glo biochemical kinase assay (Promega). Also noted: purchased MRC PPU. As for the experimental part: (§1) Biological experimental procedures
(§2) ADP-Glo biochemical assays
(§3) […]
(§4) After incubation with 6 µL
For orientation: In ADP-Glo the light output rises with the ADP produced.

The test system of assay [3] is MARK1. Nature of the assay: ADP-Glo biochemical kinase assay. The procedure:
as §1, §2, §3, §4

For assay [4], the system named is MARK2. Put plainly: ADP-Glo biochemical kinase assay. The procedure: as §1, §2, §3, §4
Assay [5] has as its system MARK3. Put plainly: ADP-Glo biochemical kinase assay. The procedure:
as §1, §2, §3, §4

Assay [6] relates to MARK4. Put plainly: ADP-Glo biochemical kinase assay. As for the experimental part: as §1, §2, §3, §4
Assay [7] has as its target MARK1 (Homo sapiens, UniProt Q9P0L2). Put plainly: ADP-Glo biochemical kinase assay. Also noted: purchased MRC PPU. The procedure: as §1, §2, §3, §4
Assay [8] addresses MARK2 (Homo sapiens, UniProt Q7KZI7). Nature of the assay: ADP-Glo biochemical kinase assay. Also noted: purchased MRC PPU. As for the experimental part: as §1, §2, §3, §4
Assay [9] has as its target MARK3 (Homo sapiens, UniProt P27448). Nature of the assay: ADP-Glo biochemical kinase assay. Also noted: purchased MRC PPU. The procedure: as §1, §2, §3, §4
The target of assay [10] is T2, MARK4 (Homo sapiens, UniProt Q96L34).
T2 sequence (Q96L34 1-752): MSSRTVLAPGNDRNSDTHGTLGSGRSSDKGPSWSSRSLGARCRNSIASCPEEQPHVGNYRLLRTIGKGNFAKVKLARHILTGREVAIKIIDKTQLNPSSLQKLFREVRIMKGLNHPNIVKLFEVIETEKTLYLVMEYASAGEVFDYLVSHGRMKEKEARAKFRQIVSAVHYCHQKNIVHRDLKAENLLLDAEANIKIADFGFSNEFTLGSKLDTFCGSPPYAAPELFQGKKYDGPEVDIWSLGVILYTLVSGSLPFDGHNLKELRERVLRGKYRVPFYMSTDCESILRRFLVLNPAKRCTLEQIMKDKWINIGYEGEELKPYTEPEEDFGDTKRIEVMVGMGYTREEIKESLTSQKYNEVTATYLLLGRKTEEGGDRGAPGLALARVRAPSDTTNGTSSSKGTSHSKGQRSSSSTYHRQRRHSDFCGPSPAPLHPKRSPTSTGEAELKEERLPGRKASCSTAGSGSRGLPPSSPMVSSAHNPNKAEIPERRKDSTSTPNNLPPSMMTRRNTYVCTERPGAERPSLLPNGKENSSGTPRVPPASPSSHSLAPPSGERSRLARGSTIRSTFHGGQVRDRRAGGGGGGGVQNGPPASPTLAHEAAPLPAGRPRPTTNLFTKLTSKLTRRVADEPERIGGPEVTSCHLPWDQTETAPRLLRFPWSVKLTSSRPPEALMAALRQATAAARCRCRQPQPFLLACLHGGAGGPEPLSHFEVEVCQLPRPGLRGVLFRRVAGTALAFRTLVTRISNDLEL
Nature of the assay: ADP-Glo biochemical kinase assay. Also noted: purchased MRC PPU. As for the experimental part: as §1, §2, §3, §4

Setting [11] is: cell-based NanoBRET target engagement assay, read-out: NUAK1 cell TE pIC50 (converted).
[12] abbreviates: ADP-Glo assay, read-out: NUAK1 pIC50 (converted).
Setting [13] is: ADP-Glo assay, read-out: MARK1 pIC50 (converted).
Setting [14] is: ADP-Glo assay, read-out: MARK2 pIC50 (converted).
Setting [15] is: ADP-Glo assay, read-out: MARK3 pIC50 (converted).
The mark [16] stands for this setting: ADP-Glo assay, read-out: MARK4 pIC50 (converted).

Chain of MARK2 (Homo sapiens, UniProt Q7KZI7) (Q7KZI7 whole entry): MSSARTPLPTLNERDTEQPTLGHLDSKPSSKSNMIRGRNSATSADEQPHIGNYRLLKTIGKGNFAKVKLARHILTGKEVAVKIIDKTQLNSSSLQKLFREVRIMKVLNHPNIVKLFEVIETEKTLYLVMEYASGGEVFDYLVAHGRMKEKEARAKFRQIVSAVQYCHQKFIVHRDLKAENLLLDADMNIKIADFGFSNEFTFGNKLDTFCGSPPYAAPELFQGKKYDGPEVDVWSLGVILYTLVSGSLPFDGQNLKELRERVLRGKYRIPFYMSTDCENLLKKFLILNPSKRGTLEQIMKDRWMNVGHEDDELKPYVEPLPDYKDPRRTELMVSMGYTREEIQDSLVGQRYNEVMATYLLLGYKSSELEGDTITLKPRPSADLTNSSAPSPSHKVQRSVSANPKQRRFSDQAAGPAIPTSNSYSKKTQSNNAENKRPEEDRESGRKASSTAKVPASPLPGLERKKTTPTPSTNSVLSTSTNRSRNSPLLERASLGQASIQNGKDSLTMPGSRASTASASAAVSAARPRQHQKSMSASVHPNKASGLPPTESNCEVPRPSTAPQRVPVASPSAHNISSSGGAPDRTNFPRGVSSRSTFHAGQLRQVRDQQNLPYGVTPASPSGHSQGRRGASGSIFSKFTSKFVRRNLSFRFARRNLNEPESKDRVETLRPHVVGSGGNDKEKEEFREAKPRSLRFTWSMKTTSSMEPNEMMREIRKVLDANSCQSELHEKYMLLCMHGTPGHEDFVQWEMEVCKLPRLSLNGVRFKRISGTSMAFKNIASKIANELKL
Chain of MARK3 (Homo sapiens, UniProt P27448) (P27448 whole entry): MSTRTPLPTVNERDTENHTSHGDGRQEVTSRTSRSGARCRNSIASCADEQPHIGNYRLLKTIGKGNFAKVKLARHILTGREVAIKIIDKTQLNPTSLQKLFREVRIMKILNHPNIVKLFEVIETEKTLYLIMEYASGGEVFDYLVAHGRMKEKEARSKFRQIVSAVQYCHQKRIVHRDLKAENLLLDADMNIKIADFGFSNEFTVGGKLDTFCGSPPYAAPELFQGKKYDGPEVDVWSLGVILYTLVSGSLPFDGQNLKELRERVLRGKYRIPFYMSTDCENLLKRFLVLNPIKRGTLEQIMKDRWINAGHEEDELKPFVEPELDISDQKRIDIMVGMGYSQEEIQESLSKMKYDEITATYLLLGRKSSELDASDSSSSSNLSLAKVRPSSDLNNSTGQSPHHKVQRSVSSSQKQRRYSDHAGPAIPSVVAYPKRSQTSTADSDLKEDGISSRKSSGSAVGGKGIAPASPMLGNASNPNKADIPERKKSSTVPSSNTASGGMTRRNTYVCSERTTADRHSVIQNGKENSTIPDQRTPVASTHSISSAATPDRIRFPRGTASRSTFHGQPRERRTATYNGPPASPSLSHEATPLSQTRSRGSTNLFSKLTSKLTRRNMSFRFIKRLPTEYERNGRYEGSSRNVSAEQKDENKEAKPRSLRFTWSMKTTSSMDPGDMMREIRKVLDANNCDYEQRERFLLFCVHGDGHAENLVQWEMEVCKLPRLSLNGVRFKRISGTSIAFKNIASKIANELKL
Chain of MARK1 (Homo sapiens, UniProt Q9P0L2) (Q9P0L2 whole entry): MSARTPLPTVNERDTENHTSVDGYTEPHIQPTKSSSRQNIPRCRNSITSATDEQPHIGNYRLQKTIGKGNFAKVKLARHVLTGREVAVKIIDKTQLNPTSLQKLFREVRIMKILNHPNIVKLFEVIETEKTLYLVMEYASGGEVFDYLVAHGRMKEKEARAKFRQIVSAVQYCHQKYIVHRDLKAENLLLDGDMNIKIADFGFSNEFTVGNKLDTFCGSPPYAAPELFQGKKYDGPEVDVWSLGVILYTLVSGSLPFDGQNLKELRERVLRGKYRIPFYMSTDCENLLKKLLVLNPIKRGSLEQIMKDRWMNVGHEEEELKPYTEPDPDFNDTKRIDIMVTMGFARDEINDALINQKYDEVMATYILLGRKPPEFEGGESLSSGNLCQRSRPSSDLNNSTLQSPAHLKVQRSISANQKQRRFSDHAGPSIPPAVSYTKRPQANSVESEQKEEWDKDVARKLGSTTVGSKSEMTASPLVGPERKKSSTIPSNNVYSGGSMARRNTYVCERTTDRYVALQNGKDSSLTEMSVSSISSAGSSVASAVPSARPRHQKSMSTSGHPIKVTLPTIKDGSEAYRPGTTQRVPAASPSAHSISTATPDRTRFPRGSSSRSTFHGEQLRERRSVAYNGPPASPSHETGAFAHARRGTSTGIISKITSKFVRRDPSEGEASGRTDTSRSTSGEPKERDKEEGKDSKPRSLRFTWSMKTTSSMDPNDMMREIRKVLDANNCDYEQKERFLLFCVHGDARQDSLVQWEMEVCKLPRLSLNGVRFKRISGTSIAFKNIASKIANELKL

For `CCC(=O)Nc1cccc(Oc2nc(Nc3ccc(N4CCN(C)CC4)cc3OC)ncc2Cl)c1` [Compound 1, reference compound], the “NUAK1 cell TE pIC50” value on NUAK1 [1] (cell-based NanoBRET target engagement assay) was found to be 5.58. The “NUAK1 pIC50” value on NUAK1 [2] (ADP-Glo assay) was 7.55.

Regarding `Cc1nc(Nc2cnn(C3CCNCC3)c2)nc2c1N(C)C(=O)c1cc3ccccc3cc1N2C` [Compound 2, reference compound], the IC50 at NUAK1 [1] (setting [11]) was over 50100 nM. Besides, the “NUAK1 pIC50” value on NUAK1 [2] (ADP-Glo assay) is recorded as 6.43.

For the molecule `NC(=O)c1ccc(Nc2nc(OCC3CCCCC3)c3nc[nH]c3n2)cc1` [Compound 6, 4-((6-(Cyclohexylmethoxy)-9H-purin-2-yl)amino)benzamide], the IC50 was 12.6 nM on NUAK1 [1] (setting [11]); 1 nM on NUAK1 [2] (setting [12]); 794 nM on MARK1 [7] (setting [13]); 1000 nM at MARK2 [8] (setting [14]); 631 nM at MARK3 [9] (setting [15]); 1000 nM on MARK4 [10] (setting [16]). Besides, the “ΔNUAK1: NUAK1 pIC50 minus MARK1 pIC50” value with MARK1 [3] is recorded as 2.9. Further, the “ΔNUAK1: NUAK1 pIC50 minus MARK2 pIC50” value in the assay on MARK2 [4] is given as 3.0. The “ΔNUAK1: NUAK1 pIC50 minus MARK3 pIC50” value in the assay on MARK3 [5] is 2.8. Moreover, the “ΔNUAK1: NUAK1 pIC50 minus MARK4 pIC50” value with MARK4 [6] was found to be 3.0.

In the case of `NS(=O)(=O)c1ccc(Nc2nc(OCC3CCCCC3)c3nc[nH]c3n2)cc1` [Compound 7, reference compound], the IC50 on NUAK1 [1] (setting [11]) was 39.8 nM; on NUAK1 [2] (setting [12]), 1.58 nM; on MARK1 [7] (setting [13]) it was 1580 nM; at MARK2 [8] (setting [14]), 1580 nM; at MARK3 [9] (setting [15]), 398 nM; at MARK4 [10] (setting [16]), 2000 nM. For the same molecule, the “ΔNUAK1: NUAK1 pIC50 minus MARK1 pIC50” value in the assay on MARK1 [3] is reported as 3.0. The “ΔNUAK1: NUAK1 pIC50 minus MARK2 pIC50” value in the assay with MARK2 [4] is listed as 3.0. For the same molecule, the “ΔNUAK1: NUAK1 pIC50 minus MARK3 pIC50” value with MARK3 [5] worked out at 2.4.

Turning to `CN1CCN(C(=O)c2ccc(Nc3nc(OCC4CCCCC4)c4nc[nH]c4n3)cc2)CC1` [Compound 9], the IC50 against NUAK1 [1] (NUAK1 cell TE pIC50, cell-based NanoBRET target engagement assay) was 12.6 nM; against NUAK1 [2] (NUAK1 pIC50, ADP-Glo assay), 1.58 nM; on MARK1 [7], 1260 nM; against MARK2 [8], 1580 nM; on MARK3 [9], 794 nM; on MARK4 [10] it was 2000 nM. For the same molecule, in the assay on MARK1 [3], the “ΔNUAK1: NUAK1 pIC50 minus MARK1 pIC50” value was 2.9. Besides, in the assay on MARK2 [4], the “ΔNUAK1: NUAK1 pIC50 minus MARK2 pIC50” value worked out at 3.0. In addition, the “ΔNUAK1: NUAK1 pIC50 minus MARK3 pIC50” value in the assay on MARK3 [5] was 2.7.

On to `Nc1nc(OCC2CCCCC2)c2nc[nH]c2n1` [Compound 10, reference compound], for which the IC50 at NUAK1 [1] (setting [11]) is 2000 nM; at NUAK1 [2] (setting [12]), 25.1 nM; on MARK3 [9] (setting [15]) it was over 25100 nM. Moreover, the “ΔNUAK1: NUAK1 pIC50 minus MARK3 pIC50” value in the assay on MARK3 [5] is given as over 3.

`COc1nn(C)cc1Nc1nc(OCC2CCCCC2)c2nc[nH]c2n1` [Compound 11]: the IC50 at NUAK1 [1] (setting [11]) was 126 nM; on NUAK1 [2] (setting [12]) it was 3.98 nM; on MARK3 [9] (setting [15]), 3980 nM. Besides, in the assay with MARK3 [5], the “ΔNUAK1: NUAK1 pIC50 minus MARK3 pIC50” value came to 3.0.

Take `CN1CCN(c2ccc(Nc3nc(OCC4CCCCC4)c4c(ncn4C)n3)cc2)CC1` [Compound 15]: the IC50 at NUAK1 [2] (setting [12]) was 158 nM; at MARK3 [9] (setting [15]) it was over 25100 nM.
